Results as given in US5264355A, “Methlating enzyme from streptomyces MA6858” (Merck & Co., Inc., priority 1992, dated 1993).
Values belong to the molecule of their own block, whether it stands above or below them.

Columns and labels:
[1] = molecular target: T1, 31-O-desmethylFK-506 O-methyltransferase (FKMT) (Streptomyces tacrolimicus, UniProt P74838); assay: FKMT O-methyltransferase assay / kinetic analysis; assay type: biochemical, Streptomyces sp. MA6858; details: substrate A as variable, above 50 uM; fixed SAM 220 μM
T1 construct: endogenous in cells; host or cells: Native enzyme purified in house from mycelium of Streptomyces MA6858 (ATCC 55098), not recombinant; for the kinetics, purified through the second MonoQ column
T1 sequence (P74838 1-260): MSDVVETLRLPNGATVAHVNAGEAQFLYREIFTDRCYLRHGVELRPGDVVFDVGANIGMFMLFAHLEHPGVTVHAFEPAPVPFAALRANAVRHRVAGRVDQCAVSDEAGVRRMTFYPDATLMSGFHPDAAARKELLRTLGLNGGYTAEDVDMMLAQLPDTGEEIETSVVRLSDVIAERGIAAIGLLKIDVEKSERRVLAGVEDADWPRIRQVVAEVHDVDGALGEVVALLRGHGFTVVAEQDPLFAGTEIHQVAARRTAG
Protocol: (§1) This enzyme, is SAM dependent and has requirement for Mg^+2 with optimum concentration of 4 mM. […] The temperature effect on the methylation reaction was examined at 0°, 22°, 24°, 34°, 37°, and 44° C. The optimum temperature for the reaction was determined to be at 34° C. Above this temperature there was a problem with substrate decomposition. Under the established incubation condition in which 31 uM of substrate A and 220 uM of SAM were used, the rate of the methylation reaction was linear up to 35 min with protein concentration up to 100 ug.
(§2) For the kinetic studies, a preparation of the FKMT enzyme which had been purified through the second MonoQ column chromatography was used. Under conditions for the initial velocity measurement, apparent Km and Vmax were determined for 31-O-desmethyFK-506 (substrate A) at one saturating concentration of SAM ([…]). […]
(§3) The assay was carried out in 1 ml. mixture containing 0.025 mM 31-desmethylFK-506, 4 mM MgSO4 and different quantities of the enzyme source in 50 mM phosphate buffer, pH 7.5. […] The plastic sheet was developed in chloroform:methanol (9:1) and area showing standard FK-506 under UV-light was cut and the radioactivity in the cut-strip was measured and the amount of the product formed was calculated.

in vitro immune systems = details: J. Antibiotics 1987, 40, 1256; cited from earlier work
[2] = substrate: C=CC[C@@H]1/C=C(\C)C[C@H](C)C[C@H](OC)[C@H]2O[C@@](O)(C(=O)C(=O)N3CCCC[C@H]3C(=O)O[C@H](/C(C)=C/[C@@H]3CC[C@@H](O)[C@H](O)C3)[C@H](C)[C@@H](O)CC1=O)[C@H](C)C[C@@H]2OC; assay: FKMT O-methyltransferase assay / kinetic analysis; assay type: biochemical, Streptomyces sp. MA6858; details: other: FKMT purified through second MonoQ column, initial velocity, pH 7.5
Protocol: as §1, §2, §3

- substrate inhibition [1]: no substrate inhibition
Molecule: C=CC[C@@H]1/C=C(\C)C[C@H](C)C[C@H](OC)[C@H]2O[C@@](O)(C(=O)C(=O)N3CCCC[C@H]3C(=O)O[C@H](/C(C)=C/[C@@H]3CC[C@@H](O)[C@H](O)C3)[C@H](C)[C@@H](O)CC1=O)[C@H](C)C[C@@H]2OC [31-O-desmethyFK-506]

Molecule: C=CC[C@@H]1/C=C(\C)C[C@H](C)C[C@H](OC)[C@H]2O[C@@](O)(C(=O)C(=O)N3CCCC[C@H]3C(=O)O[C@H](/C(C)=C/[C@@H]3CC[C@@H](O)[C@H](OC)C3)[C@H](C)[C@@H](O)CC1=O)[C@H](C)C[C@@H]2OC [FR-900506, 17-allyl-1,14-dihydroxy-12-[2'-(4"-hydroxy-3"-methoxycyclohexyl)-1'-methylvinyl]-23,25-dimethoxy-13,19,21,27-tetramethyl-11,28-dioxa-4-azatricyclo-[22.3.1.0^4,9]-octacos-18-ene-2,3,10,16-tetraone]
- effectiveness relative to cyclosporin in the suppression of in vitro immune systems (in vitro immune systems): 100 times

B1: 31-O-desmethylFK-506 O-methyltransferase (FKMT) (Streptomyces tacrolimicus) (protein)
chain: T1 sequence (P74838 1-260)
notes: Washed mycelium was used for the preparation of the cell-free extract; endogenous in cells; host or cells: Native enzyme purified in house from mycelium of Streptomyces MA6858 (ATCC 55098), not recombinant; for the kinetics, purified through the second MonoQ column
- Km ([2]; saturating SAM (220 uM)): 23.21 µM
- Vmax ([2]; saturating SAM (220 mM as printed)): 2.33 nmol/mg/min
